In EP2435064B1, “USE OF HAT INHIBITORS AND TMPRSS2 INHIBITORS AS MEDICAMENTS” (Philipps-Universität Marburg, priority 2009, dated 2010):

How the values were obtained:
[1] = tested on: Influenzavirus-Isolat A/Memphis/14/96 (H1N1); type: cell-based; conditions: Calu-3-Zellen (endogenous TMPRSS2), 24 h infection
TMPRSS2 = biological target: T1, TMPRSS2 (Homo sapiens, UniProt O15393); experiment: Enzyme kinetic determination of inhibition of TMPRSS2 (Ki, Dixon method, chromogenic substrate d-Cyclohexylalanin-Gly-Arg-p-Nitroanilin); type: biochemical; conditions: TMPRSS2 catalytic domain expressed in E. coli, Tris pH 8.0, room temperature
T1 construct: TMPRSS2 (katalytische Domäne exprimiert in E. coli); made in house; host or cells: E. coli
T1 sequence (O15393 256-492 limits assumed): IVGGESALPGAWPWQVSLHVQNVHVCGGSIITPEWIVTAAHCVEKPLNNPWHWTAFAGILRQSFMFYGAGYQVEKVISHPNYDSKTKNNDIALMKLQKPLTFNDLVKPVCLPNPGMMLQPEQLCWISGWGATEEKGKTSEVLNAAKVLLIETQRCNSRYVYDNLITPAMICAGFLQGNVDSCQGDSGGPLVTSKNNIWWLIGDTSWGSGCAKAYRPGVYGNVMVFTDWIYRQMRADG
Source text: (§1) Die Hemmwirkung der Inhibitoren für HAT (R&D Systems) und TMPRSS2 (katalytische Domäne exprimiert in E. coli) wurden unter Verwendung chromogener Substrate ermittelt. Für HAT wurde d-Cyclohexylalanin-Pro-Arg-7-Aminomethylcoumarin und für TMPRSS2 d-Cyclohexylalanin-Gly-Arg-p-Nitroanilin als Substrat verwendet. Die Bestimmung wurde mit einem Fluoreszenz-Plattenreader Safire^2 der Firma Tecan (λEx = 380 nm, λEm = 460 nm) für HAT und mit einem UV/Vis Plattenreader iEMS Reader MF 1401 der Firma LABSYSTEMS für TMPRSS2 bei 405 nm durchgeführt. Die Messung erfolgte in Tris-Puffer (50 mM Tris pH 9.5, 0,05% Brij 58 und 1 mg/ml bovines serum Albumin für HAT und 50 mM Tris pH 8.0, 0,154 M NaCl für TMPRSS2) auf Mikrotiter Platten bei Raumtemperatur. Die Inhibitorlösungen geeigneter Konzentration wurden in DMSO hergestellt. Im Messansatz wurden zu 2 µl Inhibitorlösung unterschiedlicher Konzentration jeweils 158 µl Puffer und 20 µl Substratlösung geben, und danach die Reaktion durch Zugabe von 20 µl Enzymlösung gestartet. Jeder Inhibitor wurde mit drei verschiedenen Substratkonzentrationen vermessen (50 µM, 100 µM, 200 µM für HAT und 45 µM, 90 µM und 181 µM für TMPRSS2). Die Inhibitorkonzentration wurde mindestens um den Bereich einer Größenordnung variiert und jeweils die steady-state Geschwindigkeit bestimmt. Die Berechnung der Ki-Werte erfolgte mit Hilfe eines Computerprogramms nach der Methode von Dixon.

HAT-Flag = biological target: T2, HAT-Flag (Homo sapiens, UniProt O60235); experiment: Inhibition of affinity-purified HAT-Flag: cleavage of the substrate Boc-Leu-Gly-Arg-AMC; type: biochemical; conditions: 25 µM Boc-Leu-Gly-Arg-AMC, 2 h, 37° C, pH 7,4
T2 construct: made in house; host or cells: MDCK-HAT cells (MDCK stably transfected with pcEFTet-On/NEO and pTRE2pur-HAT-FLAG, doxycycline-inducible); isolated with the FLAG Tagged Protein Immunoprecipitation Kit
T2 sequence (O60235 1-418): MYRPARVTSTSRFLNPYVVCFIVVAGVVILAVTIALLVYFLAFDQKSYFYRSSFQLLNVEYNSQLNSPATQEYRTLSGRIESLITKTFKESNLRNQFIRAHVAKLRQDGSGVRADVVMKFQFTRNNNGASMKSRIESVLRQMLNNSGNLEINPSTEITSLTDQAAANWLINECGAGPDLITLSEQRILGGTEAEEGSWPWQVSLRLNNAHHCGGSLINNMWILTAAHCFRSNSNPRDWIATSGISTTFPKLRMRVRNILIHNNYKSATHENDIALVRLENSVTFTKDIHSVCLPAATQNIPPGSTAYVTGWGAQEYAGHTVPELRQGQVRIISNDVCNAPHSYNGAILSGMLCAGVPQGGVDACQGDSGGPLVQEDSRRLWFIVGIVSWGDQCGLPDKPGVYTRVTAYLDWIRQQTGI
Source text: Die in MDCK-HAT-Zellen exprimierte Protease HAT besitzt zusätzlich ein C-terminales Flag-Epitop, welches die Affinitätsreinigung der Protease mit Hilfe von anti-FlagM2-Agarose (Sigma-Aldrich) ermöglicht. HAT-Flag liegt nach der Immunpräzipitation als aktive Protease vor. Die enzymatische Aktivität kann mit Hilfe des Fluoreszenzsubstrats Boc-Leu-Gly-Arg-AMC bestimmt werden.
Für Inhibitionsstudien wurde HAT-Flag zunächst mit Hilfe des FLAG®Tagged Protein Immunoprecipitation Kits aus MDCK-HAT-Zellen isoliert. Anschließend wurde die isolierte Protease mit 25 µM Boc-Leu-Gly-Arg-AMC in 50 mM Tris/HCl pH 7,4 in An- oder Abwesenheit der Inhibitoren (Endkonzentrationen 0,1 -10 µM) für 2 h bei 37° C inkubiert. Die Umsetzung des Substrates wurde mit Hilfe eines Fluoreszenz-Spektralphotomers bei 350 nm (Extinktion) sowie 460 nm (Emission) bestimmt. Als Kontrolle diente die Bestimmung der Proteaseaktivität in Abwesenheit eines Inhibitors (entspricht 0% Hemmung). Tabelle 2: Hemmwirkung synthetischer Serinproteasehemmstoffe auf die HAT-katalysierte Spaltung des Substrats Boc-Leu-Gly-Arg-AMC.

HAT = biological target: T3, HAT (Homo sapiens, UniProt O60235); experiment: Enzyme kinetic determination of inhibition of HAT (Ki, Dixon method, fluorogenic substrate d-Cyclohexylalanin-Pro-Arg-7-Aminomethylcoumarin); type: biochemical; conditions: HAT (R&D Systems), Tris pH 9.5, room temperature
T3 construct: purchased R&D Systems
T3 sequence (O60235 1-418): T2 sequence (O60235 1-418)
Source text: as §1

SMILES | Ki (HAT) | also measured
N=C(N)NCCC[C@@H](NS(=O)(=O)Cc1ccccc1)C(=O)N1CCC[C@H]1C(=O)NCc1ccc(C(=N)N)cc1 [Inhibitor 1] | 19 nM | Reduktion der Virusausbreitung [1]: konzentrationsabhängige Reduktion der Virusausbreitung; Ki (TMPRSS2): 3 nM; Prozent Hemmung (%) (HAT-Flag; Inhibitorkonzentration 0,1 µM): 22,3%; Prozent Hemmung (%) (HAT-Flag; Inhibitorkonzentration 1 µM): 70,7%; Prozent Hemmung (%) (HAT-Flag; Inhibitorkonzentration 10 µM): 93,1%
N=C(N)c1ccc(CNC(=O)CNC(=O)[C@@H](CCCN=C(N)N)NS(=O)(=O)Cc2ccccc2)cc1 [Inhibitor 2] | 279 nM | 
N=C(N)c1ccc(CNC(=O)[C@H](CO)NC(=O)[C@@H](CO)NS(=O)(=O)Cc2ccccc2)cc1 [Inhibitor 3] | 78 nM | Reduktion der Virusausbreitung [1]: konzentrationsabhängige Reduktion der Virusausbreitung; Prozent Hemmung (%) (HAT-Flag; Inhibitorkonzentration 0,1 µM): 29,5%; Prozent Hemmung (%) (HAT-Flag; Inhibitorkonzentration 1 µM): 47,1%; Prozent Hemmung (%) (HAT-Flag; Inhibitorkonzentration 10 µM): 80,3%
N=C(N)c1ccc(CNC(=O)[C@H](CCCCNC(=O)OCc2ccccc2)NC(=O)[C@@H](CO)NS(=O)(=O)Cc2ccccc2)cc1 [Inhibitor 4] | 48 nM | 
N=C(N)c1ccc(CNC(=O)[C@@H]2CCCN2C(=O)[C@@H](CC2CCCCC2)NS(=O)(=O)Cc2ccccc2)cc1 [Inhibitor 5] | 77 nM | Ki (TMPRSS2): 81 nM; Prozent Hemmung (%) (HAT-Flag; Inhibitorkonzentration 0,1 µM): 27%; Prozent Hemmung (%) (HAT-Flag; Inhibitorkonzentration 1 µM): 47,4%; Prozent Hemmung (%) (HAT-Flag; Inhibitorkonzentration 10 µM): 51,5%
[H]/N=C(\N)c1ccc(CNC(=O)[C@@H]2CCCN2C(=O)[C@@H](Cc2ccccc2)NS(=O)(=O)Cc2ccccc2)cc1 [Inhibitor 6] | 66 nM | 
N=C(N)c1ccc(CNC(=O)[C@@H]2CCCN2C(=O)[C@@H](CCc2ccccc2)NS(=O)(=O)Cc2ccccc2)cc1 [Inhibitor 7] | 55 nM | 
N=C(N)c1ccc(CNC(=O)[C@@H]2CCCN2C(=O)[C@@H](CCCCNC(=O)OCc2ccccc2)NS(=O)(=O)Cc2ccccc2)cc1 [Inhibitor 8] | 49 nM | 
N=C(N)c1ccc(CNC(=O)[C@@H]2CCCN2C(=O)[C@@H](CCCCN)NS(=O)(=O)Cc2ccccc2)cc1 [Inhibitor 9] | 30 nM | 
N=C(N)NCCCC[C@@H](NS(=O)(=O)Cc1ccccc1)C(=O)N1CCC[C@H]1C(=O)NCc1ccc(C(=N)N)cc1 [Inhibitor 10] | 13 nM | 
N=C(N)c1ccc(CNC(=O)[C@@H]2CCCN2C(=O)C(CCc2ccccn2)NS(=O)(=O)Cc2ccccc2)cc1 (stereo partly shown) [Inhibitor 11] | 32 nM | 
N#Cc1ccc(C[C@@H](NS(=O)(=O)Cc2ccccc2)C(=O)N2CCC[C@H]2C(=O)NCc2ccc(C(=N)N)cc2)cc1 [Inhibitor 12] | 210 nM | 
CCCCCCCCCC(=O)NCCCC[C@H](NC(=O)[C@@H](CCCNC(=N)N)NS(=O)(=O)Cc1ccccc1)C(=O)NCc1ccc(C(=N)N)cc1 [Inhibitor 14] | 160 nM | Ki (TMPRSS2): 8 nM
N=C(N)c1ccc(CNC(=O)CNC(=O)[C@@H](CO)NS(=O)(=O)Cc2ccccc2)cc1 [Inhibitor 15] | 1840 nM | 
CCCCCCCCCC(=O)NCCCC[C@H](NC(=O)[C@@H](CC1CCCCC1)NS(=O)(=O)Cc1ccccc1)C(=O)NCc1ccc(C(=N)N)cc1 [Inhibitor 16] | > 20000 nM | 
N=C(N)c1ccc(CNC(=O)[C@H](CCCCNC(=O)OCc2ccccc2)NC(=O)[C@@H](CC2CCCCC2)NS(=O)(=O)Cc2ccccc2)cc1 [Inhibitor 17] | 488 nM | Ki (TMPRSS2): 84 nM
